Experimental data from ChEMBL document CHEMBL5344410, “Design, development and evaluation of a prodrug-type TrkA-selective inhibitor with antinociceptive effects in vivo” (Eur J Med Chem, 2023).
Activity calls are given as the source filed them. The calls are words filed in the database; no cut-off is given here.

Key:
[1] = target: BDNF/NT-3 growth factors receptor (Homo sapiens, UniProt Q16620); experiment: Inhibition of TRKB (unknown origin) using Kinase substrate 22 pre-incubated with compound for 10 mins followed by substrate and ATP addition measured after 30 mins by mobility shift assay based caliper reader analysis
[2] = target: T1, High affinity nerve growth factor receptor (Homo sapiens, UniProt P04629); experiment: Inhibition of human 6-His tagged TRKA expressed in Sf9 insect cells incubated for 2 hrs in presence of ATP by LanthaScreen based FRET assay
Target sequence in this assay (P04629 whole entry): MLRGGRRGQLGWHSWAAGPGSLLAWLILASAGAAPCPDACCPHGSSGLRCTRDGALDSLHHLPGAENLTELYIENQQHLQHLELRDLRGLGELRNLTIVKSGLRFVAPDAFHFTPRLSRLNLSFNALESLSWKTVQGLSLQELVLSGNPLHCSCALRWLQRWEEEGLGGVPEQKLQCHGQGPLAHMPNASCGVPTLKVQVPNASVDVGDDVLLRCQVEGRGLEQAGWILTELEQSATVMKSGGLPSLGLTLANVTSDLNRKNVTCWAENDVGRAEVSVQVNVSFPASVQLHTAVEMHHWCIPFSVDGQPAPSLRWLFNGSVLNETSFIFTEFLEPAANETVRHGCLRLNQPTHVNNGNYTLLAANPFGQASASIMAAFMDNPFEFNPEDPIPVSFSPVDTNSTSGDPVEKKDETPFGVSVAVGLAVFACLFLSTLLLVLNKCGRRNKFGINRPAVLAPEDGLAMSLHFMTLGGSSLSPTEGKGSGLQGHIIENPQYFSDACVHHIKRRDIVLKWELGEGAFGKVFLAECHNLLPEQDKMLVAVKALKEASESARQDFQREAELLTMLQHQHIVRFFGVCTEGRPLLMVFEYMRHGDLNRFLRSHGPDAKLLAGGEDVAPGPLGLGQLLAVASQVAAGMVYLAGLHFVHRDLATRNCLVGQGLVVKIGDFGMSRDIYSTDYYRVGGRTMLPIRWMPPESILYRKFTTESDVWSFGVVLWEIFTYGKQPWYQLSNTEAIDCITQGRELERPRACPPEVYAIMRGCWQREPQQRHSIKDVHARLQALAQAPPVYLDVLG

[3] = target: T1, High affinity nerve growth factor receptor; experiment: Inhibition of TRKA (unknown origin) using Kinase substrate 22 pre-incubated with compound for 10 mins followed by substrate and ATP addition measured after 30 mins by mobility shift assay based caliper reader analysis
Target sequence in this assay (P04629 whole entry): as above

[4] = target: T1, High affinity nerve growth factor receptor; experiment: Inhibition of human 6-His tagged TRKA expressed in Sf9 insect cells incubated for 2 hrs in presence of ATP by LanthaScreen based FRET assay relative to control; conditions: concentration not given here
Target sequence in this assay (P04629 33-796 limits assumed): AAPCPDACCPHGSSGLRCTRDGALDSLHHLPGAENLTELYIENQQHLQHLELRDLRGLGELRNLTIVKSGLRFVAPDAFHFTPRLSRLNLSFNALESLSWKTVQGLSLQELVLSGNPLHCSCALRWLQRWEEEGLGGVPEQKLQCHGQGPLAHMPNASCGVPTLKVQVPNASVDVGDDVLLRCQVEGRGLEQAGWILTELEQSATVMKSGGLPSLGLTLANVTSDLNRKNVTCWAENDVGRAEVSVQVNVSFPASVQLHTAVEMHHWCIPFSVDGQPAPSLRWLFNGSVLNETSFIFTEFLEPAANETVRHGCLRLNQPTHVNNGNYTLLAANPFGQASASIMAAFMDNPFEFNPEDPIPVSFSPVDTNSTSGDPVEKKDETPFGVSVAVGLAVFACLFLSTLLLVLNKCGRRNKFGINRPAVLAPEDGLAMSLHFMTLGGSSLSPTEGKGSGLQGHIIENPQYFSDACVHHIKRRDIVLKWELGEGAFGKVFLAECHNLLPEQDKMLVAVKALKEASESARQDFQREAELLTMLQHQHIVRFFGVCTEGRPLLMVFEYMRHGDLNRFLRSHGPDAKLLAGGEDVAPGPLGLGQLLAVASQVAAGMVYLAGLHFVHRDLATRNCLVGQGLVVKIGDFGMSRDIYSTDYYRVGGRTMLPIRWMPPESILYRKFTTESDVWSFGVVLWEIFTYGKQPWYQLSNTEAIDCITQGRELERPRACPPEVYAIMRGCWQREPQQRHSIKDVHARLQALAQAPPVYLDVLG

[5] = target: NT-3 growth factor receptor (Homo sapiens, UniProt Q16288); experiment: Inhibition of TRKC (unknown origin) using Kinase substrate 22 pre-incubated with compound for 10 mins followed by substrate and ATP addition measured after 30 mins by mobility shift assay based caliper reader analysis
[6] = Drug metabolism in mouse hepatocyte assessed as 5-(3-(1-Methy1-1H-pyrazol-3-y1)-4-(trifluoromethyl)benzamido)-6-phenylnicotinic acid metabolite formation at 2 uM incubated for 30 mins by LC-MS/MS analysis; type: ADME, cell-based; conditions: hepatocytes, 0.5 h
Mus musculus [7] = experiment: Antinociceptive activity in ATP-induced Kunming mouse assessed as reduction in nociceptive response at 40 mg/kg,IG administration and measured after 1 hr by hot plate test; type: functional, organism-based
Mus musculus [8] = experiment: Antinociceptive activity in Kunming mouse assessed as reduction in nociceptive response at 40 mg/kg,IG administration and measured for 1 to 6 hrs by hot plate test; type: functional, organism-based; conditions: time 1-6 hrs
[9] = Drug metabolism in mouse hepatocyte assessed as 5-(3-(1-Methyl-1H-pyrazol-3-y1)-4-(trifluoromethyl)benzamido)-6-phenybridirt-3-yldihydrogen phosphate metabolite formation at 2 uM incubated for 30 mins by LC-MS/MS analysis; type: ADME, cell-based; conditions: hepatocytes, 0.5 h
[10] = Drug metabolism in mouse hepatocyte assessed as N-(5-Hydroxy-2-phenylpyridin-3-y1)-3-(1-methyl-1H-pyrazol-3-y1)-4-(trifluoromethyl) benzamide metabolite formation at 2 uM incubated for 30 mins by LC-MS/MS analysis; type: ADME, cell-based; conditions: hepatocytes, 0.5 h
Mus musculus [11] = experiment: Antinociceptive activity in Kunming mouse assessed as reduction in nociceptive response at 40 mg/kg,IG administration and measured after 1 hr by hot plate test; type: functional; design: scale not given: the % may be the effect or the level left
Mus musculus [12] = experiment: Antinociceptive activity in Kunming mouse assessed as reduction in nociceptive response at 100 mg/kg,IG administration and measured for 1 to 6 hrs by hot plate test; type: functional, organism-based; conditions: time 1-6 hrs
Mus musculus [13] = experiment: Antinociceptive activity against formalin-induced pain in C57BL/6N mouse assessed as reduction in nociceptive response in phase II at IG administration for 1 hr followed by formalin challenge; type: functional, organism-based
Mus musculus [14] = experiment: Antinociceptive activity in Kunming mouse assessed as reduction in nociceptive response at 15 mg/kg,IG administration and measured after 1 hr by hot plate test; type: functional, organism-based
[15] = Drug metabolism in Kunming mouse blood assessed as 5-(3-(1-Methy1-1H-pyrazol3-yl)-4-(trifluoromethyl)benzamido)-6-phenylnicotinic acid metabolite formation at 15 mg/kg,IG administration measured after 1 hr by LC-MS/MS analysis; type: ADME, organism-based; conditions: in vivo, po
[16] = Drug uptake in Kunming mouse blood at 15 mg/kg,IG administration measured after 30 mins by LC-MS/MS analysis; type: ADME, organism-based; conditions: in vivo, po, 0.5 h
Mus musculus [17] = experiment: Antinociceptive activity in Kunming mouse assessed as reduction in nociceptive response at 40 mg/kg,IG administration and measured at 3 hrs by hot plate test; type: functional, organism-based
Mus musculus [18] = experiment: Antinociceptive activity against formalin-induced pain in C57BL/6N mouse assessed as reduction in nociceptive response in phase I at IG administration for 1 hr followed by formalin challenge; type: functional, organism-based
Mus musculus [19] = experiment: Antinociceptive activity in Kunming mouse assessed as reduction in nociceptive response by measuring effective dose at IG administration measured after 3 hr by hot plate test; type: functional; conditions: po
Mus musculus [20] = experiment: Antinociceptive activity in Kunming mouse assessed as reduction in nociceptive response at 8 mg/kg,IG administrated with TRKA activator, Amitriptyline and measured at 3 hrs by hot plate test; type: functional, organism-based

Chain of NT-3 growth factor receptor (Q16288 whole entry): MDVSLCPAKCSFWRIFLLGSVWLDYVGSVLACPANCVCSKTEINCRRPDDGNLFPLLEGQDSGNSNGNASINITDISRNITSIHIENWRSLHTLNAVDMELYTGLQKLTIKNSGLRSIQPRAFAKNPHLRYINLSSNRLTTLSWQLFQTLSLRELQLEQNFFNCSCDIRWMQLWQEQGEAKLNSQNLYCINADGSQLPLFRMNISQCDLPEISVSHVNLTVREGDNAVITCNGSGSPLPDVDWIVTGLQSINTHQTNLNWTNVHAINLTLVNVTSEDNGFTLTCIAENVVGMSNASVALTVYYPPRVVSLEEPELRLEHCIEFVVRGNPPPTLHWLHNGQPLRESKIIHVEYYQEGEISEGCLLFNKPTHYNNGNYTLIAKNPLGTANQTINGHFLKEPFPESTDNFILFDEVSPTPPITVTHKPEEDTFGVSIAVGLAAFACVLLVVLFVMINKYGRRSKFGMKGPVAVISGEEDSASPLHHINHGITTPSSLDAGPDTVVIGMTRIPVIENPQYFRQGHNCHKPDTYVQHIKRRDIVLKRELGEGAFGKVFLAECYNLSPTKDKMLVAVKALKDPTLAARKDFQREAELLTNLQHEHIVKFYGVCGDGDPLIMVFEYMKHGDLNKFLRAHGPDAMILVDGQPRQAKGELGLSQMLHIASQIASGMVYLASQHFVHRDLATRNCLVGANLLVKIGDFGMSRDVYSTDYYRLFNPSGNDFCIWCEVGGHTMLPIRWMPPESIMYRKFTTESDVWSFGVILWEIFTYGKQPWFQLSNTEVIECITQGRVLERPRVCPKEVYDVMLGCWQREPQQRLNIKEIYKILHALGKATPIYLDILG
Chain of BDNF/NT-3 growth factors receptor (Q16620 whole entry): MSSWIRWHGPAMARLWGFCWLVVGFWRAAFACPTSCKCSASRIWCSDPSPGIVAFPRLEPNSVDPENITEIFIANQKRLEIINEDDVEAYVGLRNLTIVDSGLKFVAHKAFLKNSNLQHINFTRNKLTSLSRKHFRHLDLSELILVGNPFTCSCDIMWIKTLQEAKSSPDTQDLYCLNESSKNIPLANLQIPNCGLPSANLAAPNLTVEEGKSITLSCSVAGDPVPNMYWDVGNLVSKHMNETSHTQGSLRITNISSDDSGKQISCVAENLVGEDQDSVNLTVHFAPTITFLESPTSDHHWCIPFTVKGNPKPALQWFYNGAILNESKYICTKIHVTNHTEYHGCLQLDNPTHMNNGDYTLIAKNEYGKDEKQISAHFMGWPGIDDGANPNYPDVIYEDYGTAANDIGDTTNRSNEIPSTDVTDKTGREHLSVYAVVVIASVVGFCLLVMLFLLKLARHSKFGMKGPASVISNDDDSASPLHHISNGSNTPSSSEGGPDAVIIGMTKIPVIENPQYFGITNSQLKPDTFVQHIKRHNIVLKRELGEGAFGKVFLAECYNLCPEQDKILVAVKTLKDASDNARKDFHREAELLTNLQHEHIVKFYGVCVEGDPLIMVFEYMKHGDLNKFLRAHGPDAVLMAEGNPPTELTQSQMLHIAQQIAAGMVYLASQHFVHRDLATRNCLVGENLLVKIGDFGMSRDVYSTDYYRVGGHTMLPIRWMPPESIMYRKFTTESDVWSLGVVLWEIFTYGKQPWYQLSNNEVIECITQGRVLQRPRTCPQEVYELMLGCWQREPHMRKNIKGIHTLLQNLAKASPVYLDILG

Work on Cc1ncc(-c2ccccc2)c(NC(=O)NC2c3ccccc3-c3ccccc32)n1 yielded an IC50 [1] of over 81000 nM, an IC50 [2] of 99 nM and an IC50 [3] of 99 nM. For the same molecule, the inhibition [4] was over 70% and the IC50 [5] was 25000 nM.

Cn1ccc(-c2cc(C(=O)Nc3cc(C(=O)O)cnc3-c3ccccc3)ccc2C(F)(F)F)n1 gave an IC50 [1] of 190000 nM, an IC50 [3] of 22.4 nM and an IC50 [5] of 20200 nM.

Work on Cn1ccc(-c2cc(C(=O)Nc3cc(OP(=O)(O)O)cnc3-c3ccccc3)ccc2C(F)(F)F)n1 yielded an IC50 [1] of over 500000 nM, an IC50 [3] of 798 nM and an IC50 [5] of over 500000 nM.

For CCOc1nn(-c2ccccc2)c(NC(=O)N[C@H]2CN(CCOC)C[C@@H]2c2ccc(F)c(F)c2)c1C, the IC50 [1] was 1300 nM, the IC50 [3] was 2.7 nM and the IC50 [5] was 2480 nM.

In the case of COC(=O)[C@H](C)NP(=O)(Oc1ccccc1)Oc1cnc(-c2ccccc2)c(NC(=O)c2ccc(C(F)(F)F)c(-c3ccn(C)n3)c2)c1 (some centres undefined), the Drug metabolism [6] is reported as “Metabolite_Detected”, the Activity (Mus musculus [7]) is reported as “inactive” and the Activity (Mus musculus [8]) is reported as “Active”. For the same molecule, the Drug metabolism [9] was “Metabolite_Notdetected”, the Drug metabolism [10] was “Metabolite_Detected” and the Activity (Mus musculus [11]) was 20%.

With Cn1ccc(-c2cc(C(=O)Nc3cc(O)cnc3-c3ccccc3)ccc2C(F)(F)F)n1 the IC50 [1] was over 500000 nM, the IC50 [3] was 70.4 nM and the IC50 [5] was over 500000 nM.

Work on CC(=O)NCc1ncc(NC(=O)c2ccc(C(F)(F)F)c(-c3cn(C)cn3)c2)c(-c2ccccc2)n1 yielded an IC50 [3] of 4 nM and an IC50 [5] of 760 nM.

With CC(C)Cc1ccc(C(C)C(=O)O)cc1 (centres undefined) the Activity (Mus musculus [12]) was “Active”.

In the case of CC(=O)OCOC(=O)c1cnc(-c2ccccc2)c(NC(=O)c2ccc(C(F)(F)F)c(-c3ccn(C)n3)c2)c1, the Activity (Mus musculus [13]) is reported as “Dose-Dependent Effect”, the Activity (Mus musculus [14]) is reported as “Active” and the Drug metabolism [6] is reported as “Metabolite_Detected”. The Drug metabolism [15] was “Metabolite_Detected”, the Drug uptake [16] was “Not Active” and the Activity (Mus musculus [7]) was “inactive”. The Activity (Mus musculus [17]) was “Active”, the Drug metabolism [9] was “Metabolite_Notdetected” and the Drug metabolism [10] was “Metabolite_Detected”. The Activity (Mus musculus [18]) was “Dose-Dependent Effect”, the ED50 (Mus musculus [19]) was 7.84 mg/kg and the Activity (Mus musculus [20]) was “inactive”. The Activity (Mus musculus [11]) was 20%.
